Results published in EP0908457B1, “3-(1,2-benzisothiazol- and isoxazol-5-Y1)-2,4(1H,3H)-pyrimidinedione or thione and 3-(1,2-benzisothiazol- and isoxazol-5-y1)-4(3H)-pyrimidinone or thione herbicidal agents” (BASF AKTIENGESELLSCHAFT, priority 1997, dated 1999).

Legend:
[1] = system: Echinochloa oryzoides (Ard.) Fritsch.; assay: Preemergence weed control under flooded paddy conditions, ECHORC (Watergrass (Calif.)); type: in vivo; details: flooded paddy; as to herbicidal effect rating, ECHORC: meaning of each grade not given here
[2] = system: Cyperus iria; assay: Preemergence weed control under flooded paddy conditions, CYPIR (Rice Flatsedge); type: in vivo; details: flooded paddy; as to herbicidal effect rating, CYPIR: meaning of each grade not given here
[3] = system: Cyperus serotinus, Rottb.; assay: Preemergence weed control under flooded paddy conditions, CYPSE (Flatsedge); type: in vivo; as to herbicidal effect rating, CYPSE: meaning of each grade not given here
[4] = system: Monochoria vaginalis, Presl.; assay: Preemergence weed control under flooded paddy conditions, MOOVA (Monochoria); type: in vivo; details: flooded paddy; as to herbicidal effect rating, MOOVA: meaning of each grade not given here
[5] = system: Sagittaria pygmaea, L.; assay: Preemergence weed control under flooded paddy conditions, SAGPY (Arrowhead (Pygmaea)); type: in vivo; details: flooded paddy; as to herbicidal effect rating, SAGPY: meaning of each grade not given here
[6] = system: Oryza sativa, (L.) Tebonnet; assay: Rice tolerance to post-transplant applications under flooded paddy conditions (Example 187), ORYSAT (Rice, Tebonnet); details: for herbicidal effect rating ORYSAT: rated 3-4 weeks after treatment; for ORYSAT herbicidal rating (rice tolerance) / ORYSAT herbicidal effect rating / herbicidal effect rating, ORYSAT (rice tolerance): rated three to four weeks after treatment; as to herbicidal effect rating ORYSAT: meaning of each grade not given here
[7] = Rate 0.0320 kg/ha, preemergence, rated 3-4 weeks after treatment
[8] = Rate 0.0620 kg/ha, preemergence, rated 3-4 weeks after treatment
[9] = Rate 0.1250 kg/ha, preemergence, rated 3-4 weeks after treatment
[10] = Rate 0.2500 kg/ha, preemergence, rated 3-4 weeks after treatment
[11] = Rate 0.5000 kg/ha, preemergence, rated 3-4 weeks after treatment
[12] = 0.0320 kg/ha, preemergence, rated three to four weeks after treatment
[13] = 0.0620 kg/ha, preemergence, rated three to four weeks after treatment
[14] = 0.1250 kg/ha, preemergence, rated three to four weeks after treatment
[15] = 0.2500 kg/ha, preemergence, rated three to four weeks after treatment
[16] = Rate 0.0313 kg/ha, preemergence, rated three to four weeks after treatment
[17] = Rate 0.0625 kg/ha, preemergence, rated three to four weeks after treatment
[18] = Rate 0.1250 kg/ha, preemergence, rated three to four weeks after treatment
[19] = Rate 0.2500 kg/ha, preemergence, rated three to four weeks after treatment
[20] = 0.0313 kg/ha, preemergence weeds, rated three to four weeks after treatment
[21] = 0.0625 kg/ha, preemergence weeds, rated three to four weeks after treatment
[22] = 0.1250 kg/ha, preemergence weeds, rated three to four weeks after treatment
[23] = 0.2500 kg/ha, preemergence weeds, rated three to four weeks after treatment

C=CS(=O)(=O)NC(=O)COc1ccccc1-c1nsc2ccc(-n3c(=O)cc(C(F)(F)F)n(C)c3=O)cc12 [Example 557, Acetamide, 2-{o-{5-[3,6-dihydro-3-methyl-2,6-dioxo-4-(trifluoromethyl)-1(2H)-pyrimidinyl]-1,2-benzisothiazol-3-yl}phenoxy}-N-(vinylsulfonyl)-]
herbicidal effect rating, ECHORC [1, 7]: 4.3 | herbicidal effect rating, ECHORC [1, 8]: 5.1 | herbicidal effect rating, ECHORC [1, 9]: 6.3 | herbicidal effect rating, ECHORC [1, 10]: 9.0 | herbicidal effect rating, ECHORC [1, 11]: 9.0 | herbicidal effect rating, CYPIR [2, 7]: 4.0 | herbicidal effect rating, CYPIR [2, 8]: 8.0 | herbicidal effect rating, CYPIR [2, 9]: 9.0 | herbicidal effect rating, CYPIR [2, 10]: 9.0 | herbicidal effect rating, CYPIR [2, 11]: 9.0 | herbicidal effect rating, CYPSE [3, 7]: 0.0 | herbicidal effect rating, CYPSE [3, 9]: 6.0 | herbicidal effect rating, CYPSE [3, 10]: 9.0 | herbicidal effect rating, CYPSE [3, 11]: 5.0 | herbicidal effect rating, MOOVA [4, 7]: 9.0 | herbicidal effect rating, MOOVA [4, 8]: 9.0 | herbicidal effect rating, MOOVA [4, 9]: 9.0 | herbicidal effect rating, MOOVA [4, 10]: 9.0 | herbicidal effect rating, MOOVA [4, 11]: 9.0 | herbicidal effect rating, SAGPY [5, 7]: 0.0 | herbicidal effect rating, SAGPY [5, 8]: 0.0 | herbicidal effect rating, SAGPY [5, 9]: 2.0 | herbicidal effect rating, SAGPY [5, 10]: 4.0 | herbicidal effect rating, SAGPY [5, 11]: 4.0 | herbicidal effect rating ORYSAT ([6]; Rate 0.0320 kg/ha): 6.0 | herbicidal effect rating ORYSAT ([6]; Rate 0.0620 kg/ha): 8.0 | herbicidal effect rating ORYSAT ([6]; Rate 0.1250 kg/ha): 8.0 | herbicidal effect rating ORYSAT ([6]; Rate 0.2500 kg/ha): 9.0 | herbicidal effect rating ORYSAT ([6]; Rate 0.5000 kg/ha): 9.0

CC(C)NS(=O)(=O)NC(=O)c1nsc2ccc(-n3c(=O)cc(C(F)(F)F)n(C)c3=O)cc12 [Example 508, 1,2-Benzisothiazole-3-carboxamide, 5-[3,6-dihydro-3-methyl-2,6-dioxo-4-(trifluoromethyl)-1(2H)-pyrimidinyl]-N-(isopropylsulfamoyl)-]
ECHORC herbicidal rating [1, 12]: 2.0 | ECHORC herbicidal rating [1, 13]: 5.0 | ECHORC herbicidal rating [1, 14]: 6.0 | ECHORC herbicidal rating [1, 15]: 9.0 | CYPIR herbicidal rating [2, 12]: 6.0 | CYPIR herbicidal rating [2, 13]: 7.0 | CYPIR herbicidal rating [2, 14]: 7.0 | CYPIR herbicidal rating [2, 15]: 9.0 | CYPSE herbicidal rating [3, 12]: 0.0 | MOOVA herbicidal rating [4, 12]: 9.0 | MOOVA herbicidal rating [4, 13]: 9.0 | MOOVA herbicidal rating [4, 14]: 9.0 | MOOVA herbicidal rating [4, 15]: 9.0 | SAGPY herbicidal rating [5, 12]: 5.0 | SAGPY herbicidal rating [5, 13]: 6.0 | SAGPY herbicidal rating [5, 14]: 9.0 | SAGPY herbicidal rating [5, 15]: 9.0 | ORYSAT herbicidal rating (rice tolerance) ([6]; 0.0320 kg/ha): 0.0 | ORYSAT herbicidal rating (rice tolerance) ([6]; 0.0620 kg/ha): 2.0 | ORYSAT herbicidal rating (rice tolerance) ([6]; 0.1250 kg/ha): 5.0 | ORYSAT herbicidal rating (rice tolerance) ([6]; 0.2500 kg/ha): 6.0

Cc1nsc2ccc(-n3c(=O)cc(C(F)(F)F)n(CC#N)c3=O)cc12 [Example 213, 3,4-Dihydro-3-(3-methyl-1,2-benzisothiazol-5-yl)-2,4-dioxo-6-(trifluoromethyl)-1(2H)-pyrimidineacetonitrile]
ECHORC herbicidal effect rating [1, 16]: 0.0 | ECHORC herbicidal effect rating [1, 17]: 0.0 | ECHORC herbicidal effect rating [1, 18]: 0.0 | ECHORC herbicidal effect rating [1, 19]: 0.0 | CYPIR herbicidal effect rating [2, 16]: 0.0 | CYPIR herbicidal effect rating [2, 17]: 0.0 | CYPIR herbicidal effect rating [2, 18]: 0.0 | CYPSE herbicidal effect rating [3, 16]: 0.0 | CYPSE herbicidal effect rating [3, 17]: 0.0 | CYPSE herbicidal effect rating [3, 18]: 0.0 | CYPSE herbicidal effect rating [3, 19]: 0.0 | MOOVA herbicidal effect rating [4, 16]: 0.0 | MOOVA herbicidal effect rating [4, 17]: 0.0 | MOOVA herbicidal effect rating [4, 18]: 0.0 | MOOVA herbicidal effect rating [4, 19]: 2.0 | SAGPY herbicidal effect rating [5, 16]: 0.0 | SAGPY herbicidal effect rating [5, 17]: 0.0 | SAGPY herbicidal effect rating [5, 18]: 0.0 | SAGPY herbicidal effect rating [5, 19]: 0.0 | ORYSAT herbicidal effect rating ([6]; Rate 0.0313 kg/ha): 3.0 | ORYSAT herbicidal effect rating ([6]; Rate 0.0625 kg/ha): 4.0 | ORYSAT herbicidal effect rating ([6]; Rate 0.1250 kg/ha): 6.0 | ORYSAT herbicidal effect rating ([6]; Rate 0.2500 kg/ha): 7.0

Cn1c(C(F)(F)F)cc(=O)n(-c2ccc3snc(C(CCl)CCl)c3c2)c1=O [Example 199, 3-{3-[2-Chloro-1-(chloromethyl)ethyl]-1,2-benzisothiazol-5-yl}-1-methyl-6-(trifluoromethyl)-2,4(1H,3H)-pyrimidinedione]
herbicidal effect rating, ECHORC [1, 20]: 2.0 | herbicidal effect rating, ECHORC [1, 21]: 4.0 | herbicidal effect rating, ECHORC [1, 22]: 7.0 | herbicidal effect rating, ECHORC [1, 23]: 7.0 | herbicidal effect rating, CYPIR [2, 20]: 0.0 | herbicidal effect rating, CYPIR [2, 21]: 2.0 | herbicidal effect rating, CYPIR [2, 22]: 4.0 | herbicidal effect rating, CYPIR [2, 23]: 8.0 | herbicidal effect rating, CYPSE [3, 20]: 0.0 | herbicidal effect rating, CYPSE [3, 21]: 0.0 | herbicidal effect rating, CYPSE [3, 22]: 0.0 | herbicidal effect rating, CYPSE [3, 23]: 0.0 | herbicidal effect rating, MOOVA [4, 20]: 8.0 | herbicidal effect rating, MOOVA [4, 21]: 9.0 | herbicidal effect rating, MOOVA [4, 22]: 9.0 | herbicidal effect rating, MOOVA [4, 23]: 9.0 | herbicidal effect rating, SAGPY [5, 20]: 0.0 | herbicidal effect rating, SAGPY [5, 21]: 0.0 | herbicidal effect rating, SAGPY [5, 22]: 0.0 | herbicidal effect rating, SAGPY [5, 23]: 0.0 | herbicidal effect rating, ORYSAT (rice tolerance) ([6]; 0.0313 kg/ha): 3.0 | herbicidal effect rating, ORYSAT (rice tolerance) ([6]; 0.0625 kg/ha): 4.0 | herbicidal effect rating, ORYSAT (rice tolerance) ([6]; 0.1250 kg/ha): 6.0 | herbicidal effect rating, ORYSAT (rice tolerance) ([6]; 0.2500 kg/ha): 8.0
